Structures are written as SMILES.

The subject of test [1] is ID8 Trp53-/- Brca2-/- cells. Briefly: Syngeneic mouse model, CBX2 intact vs CBX2 knock down tumors. It is filed as in vivo, C57BL/6J mice. As to conditions: 30 mg/kg PO, 28 days. The protocol:
To further elucidate the dependence of alisertib on CBX2, an in vivo study was performed using a syngeneic mouse model with CBX2 intact compared to CBX2 knock down, undergoing treatment with alisertib. Measurements of mRNA expression confirmed that CBX2 knock down was effective (FIG. 15 Panel A). The mice were treated with vehicle control or 30 mg/kg alisertib for 28 days (FIG. 15 Panel B). Tumor-bearing mice were necropsied at the end of treatment and omental weight, number of dissemination sites, and total tumor weight were quantified (FIG. 15 Panels C-E, respectively). […] It can be concluded therefore, that the loss of CBX2 expression in an ovarian cancer model attenuates the anti-tumor response to alisertib. […] Tissue was also collected and processed for further analysis. […] In the second study, mice were treated with 30 mg/kg alisertib, PO, for 28 days, as described above. Due to the weight loss observed in the first study, we reduced treatment from 7 days per week to 5 days per week.

The test system of test [2] is TMEFF1 expression in OVCAR4 cells. Put plainly: TMEFF1 (CBX2 target gene) expression by qPCR. It is filed as cell-based, human. As to conditions: qPCR after treatment of OVCAR4 cells. The protocol:
Ten candidate inhibitors were evaluated based on their ability to inhibit HGSOC cell viability. Dose response assays of all 10 inhibitors were conducted in OVCAR4, PEO1, and COV504 HGSOC cell lines to determine half inhibitory concentration (IC50) (FIG. 12 Panel A). We explored ability of these compounds to downregulate a CBX2 target gene, transmembrane protein with EGF-like and two follistatine-like domains 1 (TMEFF1) (FIG. 12 Panel B).
RNA was isolated using RNAeasy Plus Mini Kit (Qiagen, Hilden Germany) according to the manufacturer's protocol. NanoDrop spectrophotometry was used to measure concentration of extracted RNA. Luna Universal One-step RT qPCR kit (New England BioLabs, Ipswich, MA) was used on BioRad CFX96 (Bio-Rad, Hercules, CA). HPRT or GAPDH were used as internal control as stated in figure legend.
On the technique in general: In qPCR the cycle at which signal appears reflects the starting amount.

Test [3] concerns OVCAR4 cells. Briefly: Ultra low dilution analysis (ULDA) of stemness. It is filed as cell-based, human. How it is done: An ultralow dilutional assay (ULDA) utilizing the OVCAR4 HGSOC cell line was used to evaluate the functional impact of four inhibitors. The number of spheroids were plotted against the IC50 dose of each agent (FIG. 13 Panel B). The more significant the decrease in spheroids formation capacity, the more significant the decrease in stemness associated with treatment. […] Cells were trypsinized and filtered with a 40-micron filter, creating a single cell suspension. Cells were plated in 96 wells ultra-low attachment plates (CORNING #3474 this is flat bottom, and CORNING #7007: used u bottom for COV504) in 200 ul CSC media (DMEM/F12, 1× B27, 4% FBS, 100 U/ml penicillin/streptomycin, 20 ng/ml human EGF, 20 ng/ml human FGF). After 3 days, 100 μl of medium was gently taken out, then added drugs to final IC50 concentration. The media with drug was replaced with half volume every 4-5 days and cultured for 3 weeks. […] After 4 hours spheroid existence and color were evaluated under the microscope (Incucyte). Observation of purple spheroids confirmed the presence of live cells and were scored as 1. If no spheroids appreciated, or if purple spheroids were not observed it was scored as 0. […] The stem cell frequency was calculated using ultra low limiting dilution analysis (PMID: 19567251).

For test [4], the system named is OVCAR4 cells. Briefly: Proliferation assay, parental vs CRISPR CBX2 knock out cells. It is filed as cell-based, human. Particulars: OVCAR4 CRISPR/Cas9 CBX2 KO vs parental. The protocol: Examples 8-12: All drugs were suspended in DMSO at the concentration of 50 mM and aliquoted and stored in -80 C. 1000 cells were seeded in 96 well plate a day prior. 10 fold dilution of drugs in the cultureing media supplemented with FBS and penicillin/Streptomycin was added and cells were cultured until the cells in the no-drug added wells became confluent (5-8 days). Cells were washed with PBS twice and fixed with fixation buffer (10% Methanol and 10% Acetic acid in PBS) followed by staining with Cristal Violet staining solution (0.4% Cristal Violet in 20% Ethanol). […] CBX2 CRISPR knocked-out OVCAR4 cells were created by the University of Colorado Functional Genomics Facility using the IDT Alt-R RNP system. ALT-R crRNA and ATL-R tracrRNA were suspended at 100 μmol/L in nuclease-free IDTE pH7.5. The same volumes of ALT-R crRNA and ATL-R tracrRNA were mixed to prepare gRNA complex at 50μmol/L, heated at 95° C. for 5 minutes, and then were cooled to room temperature. The RNP complex was prepared with 150 pmol of gRNA and 125 pmol of Alt-R Cas9-NLS in final volume of 5 μL in PBS. Cells were harvested in Necleofector solution SF with supplement (Lonza, Basel, Switzerland) at a concentration of 1×10^6 cells per 100 μL. The transfection mix was made with 100 μL of cell suspension, 2.5 μL each of RNP complex, and 0.6 μL of 100 μL of Alt-R Cas9 Electroporation enhancer. […]

The subject of test [5] is Histone H2A Lys119 ubiquitination (H2AK119ub). Put plainly: Western blot for H2AK119ub as marker of CBX2/PRC1 activity. It is filed as cell-based, human. How it is done:
CBX2 is a known subunit of PRC1, which is critical for normal development and functions as a transcriptional repressor. PRC1 is understood to have histone ubiquitin ligase activity, specifically targeting Histone H2A […] ubiquitination ([…]). In order to evaluate the impact of treatment with alisertib on the broader PRC1 complex, […] was used as a surrogate marker of CBX2 activity in the PRC1. OVCAR4 (***confirm) cells were treated with IC50 doses of each of the 10 candidate inhibitors, a Western blot for […] was compared to a beta-actin control (FIG. 12 Panel C). […] Finally, PRC1 target […] was used to evaluate the impact of treatment with alisertib on the broader PRC1 complex. OVCAR4 and PEO1 cells were treated with increasing doses of aliserib and western blots were performed to evaluate […] as a marker of PRC1 activity (FIG. 14 Panel F). Cell lysis was performed using radioimmunoprecipitation assay (RIPA) buffer (150 mM sodium chloride, Triton X-100, 0.5% sodium deoxycholate, 0.1% SDS [sodium dodecyl sulfate], 50 mM Tris, pH 8.0) supplemented with complete EDTA-free protease inhibitor cocktail (Roche), as well as NaF and NaV. Protein was quantified using bicinchoninic acid (BCA) protein assay (Thermo Fisher Scientific, Waltham, MA) and spectrophotometry. An 8% SDS polyacrylamide gel resolving gel was created with a 4% stacking gel. […]
A general note: Immunoblotting shows a protein as a band on a membrane.

On to `COc1cc(Nc2ncc3c(n2)-c2ccc(Cl)cc2C(c2c(F)cccc2OC)=NC3)ccc1C(=O)O` [alisertib], for which, in test [1], the “number of dissemination sites: anti-tumor response in CBX2 knock down mice vs CBX2 intact mice” value is given as “significant attenuation”, the “omental weight: anti-tumor response in CBX2 knock down mice vs CBX2 intact mice” value was “significant attenuation” and the “total tumor weight: anti-tumor response in CBX2 knock down mice vs CBX2 intact mice” value is listed as “significant attenuation”. The TMEFF1 expression entry in test [2] is on record as “significantly inhibited”. Besides, in test [3] (OVCAR4 CBX2 KO vs parental), the “impact on stemness through ULDA on knocking out CBX2” value is given as “attenuated impact”. For the same compound, the stem cell frequency result in test [3] (treatment at IC50) is listed as “decreased”. Also, the “IC50 in CBX2 KO cells compared to the parental cells” value in test [4] was “ten times higher”. Further, the “H2AK119ub, surrogate marker of PRC1 activity” value in test [5] (OVCAR4 and PEO1 cells, increasing doses) is “decreased in parallel with CBX2”. In addition, the “Histone H2A Lys119 ubiquitination” value in test [5] (OVCAR4 cells, IC50 dose, vs beta-actin control) was “decreased”.

The values are drawn from patent US20250199004A1, “METHODS OF EVALUATING TREATMENT OUTCOME IN HIGH GRADE SEROUS OVARIAN CANCER” (THE REGENTS OF THE UNIVERSITY OF COLORADO, A BODY CORPORATE, priority 2018, published 2025).
